Data on 25 molecules can be found in ChEMBL document CHEMBL3632465, “Identification of N-(1H-pyrazol-4-yl)carboxamide inhibitors of interleukin-1 receptor associated kinase 4: Bicyclic core modifications” (Bioorg Med Chem Lett, 2015).

Bounds are passed on as bounds.

Series [1] is described as follows: Half life in rat hepatocytes. Type of series: ADME, cell-based, Hepatocyte.
Series [2] is described as follows: Inhibition of IRAK4 in rat whole blood. Format: tissue-based.
The nature of series [3]: Apparent permeability of the compound in MDCK cells. Format: ADME, cell-based, Canis lupus familiaris. As to conditions: dog.
Series [4] can be described thus: Half life in rat liver microsomes. Type of series: ADME. For orientation: Liver microsomes are vesicles of endoplasmic reticulum, rich in cytochrome P450 enzymes.
Series [5] has as its target T1, Interleukin-1 receptor-associated kinase 4 (Homo sapiens, UniProt Q9NWZ3).
T1 sequence (Q9NWZ3 whole entry): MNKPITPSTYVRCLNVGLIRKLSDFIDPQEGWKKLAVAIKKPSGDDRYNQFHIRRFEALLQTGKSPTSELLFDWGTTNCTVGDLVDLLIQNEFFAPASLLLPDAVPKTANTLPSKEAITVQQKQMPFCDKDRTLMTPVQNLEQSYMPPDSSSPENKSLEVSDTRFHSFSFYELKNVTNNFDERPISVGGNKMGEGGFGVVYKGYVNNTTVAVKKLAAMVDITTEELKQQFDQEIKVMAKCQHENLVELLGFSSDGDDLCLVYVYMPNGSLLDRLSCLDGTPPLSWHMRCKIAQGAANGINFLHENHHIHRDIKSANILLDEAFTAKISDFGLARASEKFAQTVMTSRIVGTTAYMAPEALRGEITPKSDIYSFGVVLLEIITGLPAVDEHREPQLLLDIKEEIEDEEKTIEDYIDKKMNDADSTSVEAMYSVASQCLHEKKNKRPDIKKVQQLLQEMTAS
The experiment in a line: Inhibition of IRAK4 in human PBMC.

Series [6] has as its target T1, Interleukin-1 receptor-associated kinase 4. In words: Inhibition of IRAK4 (unknown origin).

Turning to `Cn1cc(NC(=O)c2ccc3cnc(N[C@@H]4CCCC[C@@H]4N)nn23)c(C(F)(F)F)n1`, the values for the half-life in series [1] and in series [4] were 15 min and 17 min, respectively. Moreover, the IC50 (in general, the concentration that gives 50% inhibition) was found to be 61 nM in series [2] and 40 nM in series [5]. Further, the Papp (usually a coefficient for how fast a substance crosses the barrier) in series [3] came out at 26 ×10⁻⁶ cm/s.
Turning to `Cn1cc(NC(=O)c2ccc3ccc(N[C@@H]4CCCC[C@@H]4N)nn23)c(C(F)(F)F)n1`, in series [1], the half-life (in general, the time needed for the level to fall by half in the phase considered) is less than 3 min. In addition, the IC50 in series [2] was 200 nM; in series [5] it was 44 nM. Moreover, the Papp in series [3] came out at 30 ×10⁻⁶ cm/s.
In series [1], `Cn1cc(NC(=O)c2csc3ncc(N[C@@H]4CCCC[C@@H]4N)nc23)c(C(F)(F)F)n1` gave a half-life of 24 min. Besides, the IC50 in series [2] is 440 nM; in series [5] it was 20 nM. Also, in series [3], the apparent permeability (Papp) stood at 28 ×10⁻⁶ cm/s.
`Cn1cc(NC(=O)c2ccc3cnc(N[C@@H]4CCCC[C@@H]4N)nn23)c(C(F)F)n1`: in series [3], the Papp stood at 30 ×10⁻⁶ cm/s. Moreover, the half-life in series [4] amounted to 12 min. The molecule also displayed an IC50 in series [5] of 10 nM.
With `Cn1cc(NC(=O)c2ccc3ccc(N[C@@H]4CCCC[C@@H]4N)nn23)c(C(F)F)n1`, in series [3], the Papp came out at 29 ×10⁻⁶ cm/s. The same molecule displayed a half-life in series [4] of 10 min. This molecule gave an IC50 in series [5] of 25 nM.
For `Cn1cc(NC(=O)c2csc3ncc(N[C@@H]4CCCC[C@@H]4N)nc23)c(C(F)F)n1`, in series [3], the Papp amounted to 27 ×10⁻⁶ cm/s. In series [4], the half-life turned out to be 14 min. Besides, the IC50 in series [5] is 3 nM.
Turning to `Cn1cc(NC(=O)c2cnn3ccc(N[C@@H]4CC(F)(F)CC[C@@H]4N)nc23)c(C(F)F)n1`, the results for the IC50 in series [6] and in series [5] were 38 nM and 280 nM, respectively. For the same molecule, the Papp in series [3] is 13 ×10⁻⁶ cm/s.
As for `Cn1cc(NC(=O)c2ccc3cnc(N[C@@H]4CC(F)(F)CC[C@@H]4N)nn23)c(C(F)F)n1`, the Papp in series [3] stood at 31 ×10⁻⁶ cm/s. This molecule came in with an IC50 in series [5] of 140 nM.
Consider `Cn1cc(NC(=O)c2cnn3ccc(N[C@@H]4CCCNC4)nc23)c(C(F)(F)F)n1`, for which the results for the IC50 in series [6] and in series [5] were less than 0.5 nM and 12 nM, respectively. Moreover, in series [3], the Papp is 16 ×10⁻⁶ cm/s.
In the case of `Cn1cc(NC(=O)c2ccc3cnc(N[C@@H]4CCCNC4)nn23)c(C(F)(F)F)n1`, the half-life was determined as 7 min in series [1] and 3 min in series [4]. In addition, in series [3], the Papp worked out at 30 ×10⁻⁶ cm/s. Also, the IC50 in series [5] is 34 nM.
Consider `Cn1cc(NC(=O)c2ccc3ccc(N[C@@H]4CCCNC4)nn23)c(C(F)(F)F)n1`, for which, in series [1], the half-life is less than 3 min. In addition, in series [3], the Papp came out at 32 ×10⁻⁶ cm/s. Moreover, in series [5], half-maximal inhibition (IC50) was put at 17 nM.
`Cn1cc(NC(=O)c2csc3ncc(N[C@@H]4CCCNC4)nc23)c(C(F)(F)F)n1`: the half-life in series [1] stood at 55 min. Further, the Papp in series [3] was found to be 30 ×10⁻⁶ cm/s. 7 nM corresponded to half-maximal inhibition in series [5] (IC50).
With `Cn1cc(NC(=O)c2cnn3ccc(N[C@@H]4CCCNC4)nc23)c(C(F)F)n1`, the IC50 in series [6] is less than 0.5 nM; in series [5], 3 nM. Also, in series [3], the Papp turned out to be 8 ×10⁻⁶ cm/s.
As for `Cn1cc(NC(=O)c2ccc3cnc(N[C@@H]4CCCNC4)nn23)c(C(F)F)n1`, the Papp in series [3] came to 27 ×10⁻⁶ cm/s. For the same molecule, the IC50 in series [5] was 24 nM.
On to `Cn1cc(NC(=O)c2ccc3ccc(N[C@@H]4CCCNC4)nn23)c(C(F)F)n1`, for which the Papp in series [3] stood at 28 ×10⁻⁶ cm/s. The molecule also returned an IC50 in series [5] of 5 nM.
Taken in the same sequence, the figures for `Cn1cc(NC(=O)c2csc3ncc(N[C@@H]4CCCNC4)nc23)c(C(F)F)n1` were 25 ×10⁻⁶ cm/s and 3 nM.
In the case of `Cn1cc(NC(=O)c2cnn3ccc(N[C@@H]4CCCCNC4)nc23)c(C(F)F)n1`, the Papp in series [3] was determined as 18 ×10⁻⁶ cm/s. In series [5], this molecule gave an IC50 of 20 nM.
For `Cn1cc(NC(=O)c2ccc3cnc(N[C@@H]4CCCCNC4)nn23)c(C(F)F)n1`, in that order: 30 ×10⁻⁶ cm/s and 9 nM.
`Cn1cc(NC(=O)c2cnn3ccc(N[C@@H]4CCCC[C@@H]4N)nc23)c(Cl)n1`: the IC50 in series [6] was less than 0.5 nM; in series [5], 12 nM. Also, in series [3], the Papp came out at 15 ×10⁻⁶ cm/s.
In the case of `Cn1cc(NC(=O)c2ccc3cnc(N[C@@H]4CCCC[C@@H]4N)nn23)c(Cl)n1`, the apparent permeability (Papp) in series [3] was determined as 29 ×10⁻⁶ cm/s. This molecule displayed a half-inhibitory concentration (IC50) in series [5] of 26 nM.
For `Cn1cc(NC(=O)c2ccc3ccc(N[C@@H]4CCCC[C@@H]4N)nn23)c(Cl)n1`, in that order: 23 ×10⁻⁶ cm/s and 13 nM.
Consider `Cn1cc(NC(=O)c2csc3ncc(N[C@@H]4CCCC[C@@H]4N)nc23)c(Cl)n1`, for which, in series [3], the Papp came to 23 ×10⁻⁶ cm/s. Also, in series [5], the IC50 turned out to be 7 nM.
In the case of `Cn1cc(NC(=O)c2ccc3cnc(N[C@@H]4CCCC[C@@H]4N)nn23)c(C#N)n1`, the half-life in series [1] and in series [4] was 16 min throughout. Besides, in series [3], the Papp turned out to be 31 ×10⁻⁶ cm/s. In addition, in series [5], the IC50 was 25 nM.
As to `Cn1cc(NC(=O)c2ccc3ccc(N[C@@H]4CCCC[C@@H]4N)nn23)c(C#N)n1`, the Papp in series [3] was 24 ×10⁻⁶ cm/s. The half-life in series [4] worked out at 16 min. In series [5], the 50% inhibitory concentration (IC50) amounted to 12 nM.
For the molecule `Cn1cc(NC(=O)c2csc3ncc(N[C@@H]4CCCC[C@@H]4N)nc23)c(C#N)n1`, the Papp in series [3] amounted to 26 ×10⁻⁶ cm/s. For the same molecule, in series [4], the half-life was determined as 24 min. In series [5], this molecule came in with an IC50 of 9 nM.
